Where “and” joins values, the source holds several entries; their conditions need not be identical. Identical values can stand only once.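 Results reflect a 48-hour exposure of cells in 96-well plates to compound at five concentrations. GI50 = concentration required for 50% inhibition of growth.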 Calls of active or inactive are those of the source. Cut-off read from the data, not from the text of the source: active = GI50 up to about 1.1 µM and inactive = higher.
Tests used:
Test in all cases: NCI-60 cell line screen, 48 h
MCF7 = system: MCF7
SR = system: SR
OVCAR-4 = system: OVCAR-4
UACC-62 = system: UACC-62
MDA-MB-435 = system: MDA-MB-435
HL-60 = system: HL-60
PC-3 = system: PC-3
DLD-1 = system: DLD-1
KM-20L2 = system: KM-20L2
RPMI-8226 = system: RPMI-8226
HCC 2998 = system: HCC 2998
M14 = system: M14
MDA-MB-231 = system: MDA-MB-231
HCT-116 = system: HCT-116
CAKI-1 = system: CAKI-1
HOP-62 = system: HOP-62
HCT-15 = system: HCT-15
T47D = system: T47D
MDA-N = system: MDA-N
SK-MEL-5 = system: SK-MEL-5
A549 = system: A549
DU-145 = system: DU-145
TK-10 = system: TK-10
RXF 631 = system: RXF 631
786-0 = system: 786-0
KM12 = system: KM12
HOP-18 = system: HOP-18
BT-549 = system: BT-549
Hs-578T = system: Hs-578T
NCI/ADR-RES = system: NCI/ADR-RES
OVCAR-5 = system: OVCAR-5
SK-MEL-2 = system: SK-MEL-2
UACC-257 = system: UACC-257
OVCAR-3 = system: OVCAR-3
SF-268 = system: SF-268
RXF 393 = system: RXF 393
SF-539 = system: SF-539
A498 = system: A498
LOX IMVI = system: LOX IMVI
LXFL 529 = system: LXFL 529
SF-295 = system: SF-295
OVCAR-8 = system: OVCAR-8
Malme-3M = system: Malme-3M
IGROV-1 = system: IGROV-1
NCI-H23 = system: NCI-H23
DMS-273 = system: DMS-273
SNB-19 = system: SNB-19
HT-29 = system: HT-29
SK-OV-3 = system: SK-OV-3
SNB-75 = system: SNB-75
CCRF-CEM = system: CCRF-CEM
SN12C = system: SN12C
NCI-H226 = system: NCI-H226
SK-MEL-28 = system: SK-MEL-28
SNB-78 = system: SNB-78
K562 = system: K562
EKVX = system: EKVX
NCI-H460 = system: NCI-H460
SW-620 = system: SW-620
NCI-H522 = system: NCI-H522
HOP-92 = system: HOP-92
UO-31 = system: UO-31
ACHN = system: ACHN
COLO 205 = system: COLO 205
XF498 = system: XF498
U-251 = system: U-251
MOLT-4 = system: MOLT-4
M19-MEL = system: M19-MEL
DMS-114 = system: DMS-114

O=C1C(Br)=C(Br)C(=O)c2ccccc21 [2,3-Dibromo-1,4-naphthoquinone]
GI50 (MCF7): 17.5 µM (inactive) | GI50 (SR): 2.2 µM (inactive) | GI50 (OVCAR-4): 17.1 µM (inactive) and 11.1 µM (inactive) | GI50 (UACC-62): 16.7 µM (inactive) and 9.71 µM (inactive) | GI50 (MDA-MB-435): 7.98 µM (inactive) | GI50 (HL-60): 2.7 µM (inactive) | GI50 (PC-3): 17.5 µM (inactive) | GI50 (DLD-1): 15.2 µM (inactive) and 18.5 µM (inactive) | GI50 (KM-20L2): 30.2 µM (inactive) and 15.1 µM (inactive) | GI50 (RPMI-8226): 3.01 µM (inactive) | GI50 (HCC 2998): 21.7 µM (inactive) and 19.1 µM (inactive) | GI50 (M14): 15.1 µM (inactive) and 8.77 µM (inactive) | GI50 (MDA-MB-231): 5.19 µM (inactive) | GI50 (HCT-116): 17.9 µM (inactive) and 12.2 µM (inactive) | GI50 (CAKI-1): 6.34 µM (inactive) | GI50 (HOP-62): 18.5 µM (inactive) and 21.5 µM (inactive) | GI50 (HCT-15): 17.2 µM and 11.9 µM | GI50 (T47D): 3.5 µM (inactive) | GI50 (MDA-N): 3.84 µM (inactive) | GI50 (SK-MEL-5): 10.5 µM (inactive) | GI50 (A549): 13.6 µM (inactive) | GI50 (DU-145): 18.7 µM (inactive) | GI50 (TK-10): 17.1 µM (inactive) and 12.7 µM (inactive) | GI50 (RXF 631): 5.94 µM (inactive) | GI50 (786-0): 18.3 µM (inactive) and 9.77 µM (inactive) | GI50 (KM12): 19.6 µM (inactive) and 12.8 µM (inactive) | GI50 (HOP-18): 20.1 µM (inactive) | GI50 (BT-549): 4.61 µM (inactive) | GI50 (Hs-578T): 4.98 µM (inactive) | GI50 (NCI/ADR-RES): 22.2 µM (inactive) | GI50 (OVCAR-5): 20.5 µM (inactive) and 10.6 µM (inactive) | GI50 (SK-MEL-2): 19.6 µM (inactive) and 10.4 µM (inactive)

CC1=CC2C(=O)N(c3ccccc3)C(=O)C2CC1n1[nH]c(=O)n(Cc2ccccc2)c1=O (centres undefined)
GI50 (UACC-257): > 100 µM (inactive) | GI50 (OVCAR-3): > 100 µM (inactive) | GI50 (SF-268): > 100 µM (inactive) | GI50 (RXF 393): > 100 µM (inactive) | GI50 (SR): > 100 µM (inactive) | GI50 (SF-539): > 100 µM (inactive) | GI50 (OVCAR-4): > 100 µM (inactive) | GI50 (UACC-62): > 100 µM (inactive) | GI50 (HL-60): > 100 µM (inactive) | GI50 (A498): > 100 µM (inactive) | GI50 (LOX IMVI): > 100 µM (inactive) | GI50 (DLD-1): > 100 µM (inactive) | GI50 (LXFL 529): > 100 µM (inactive) | GI50 (KM-20L2): > 100 µM (inactive) | GI50 (SF-295): > 100 µM (inactive) | GI50 (OVCAR-8): > 100 µM (inactive) | GI50 (Malme-3M): > 100 µM (inactive) | GI50 (HCC 2998): > 100 µM (inactive) | GI50 (M14): > 100 µM (inactive) | GI50 (IGROV-1): > 100 µM (inactive) | GI50 (NCI-H23): > 100 µM (inactive) | GI50 (DMS-273): > 100 µM (inactive) | GI50 (SNB-19): > 100 µM (inactive) | GI50 (HT-29): > 100 µM (inactive) | GI50 (HCT-116): > 100 µM (inactive) | GI50 (SK-OV-3): > 100 µM (inactive) | GI50 (CAKI-1): > 100 µM (inactive) | GI50 (HOP-62): > 100 µM (inactive) | GI50 (SNB-75): > 100 µM (inactive) | GI50 (CCRF-CEM): > 100 µM (inactive) | GI50 (HCT-15): > 100 µM | GI50 (SN12C): > 100 µM (inactive) | GI50 (NCI-H226): > 100 µM (inactive) | GI50 (SK-MEL-28): > 100 µM (inactive) | GI50 (SNB-78): > 100 µM (inactive) | GI50 (K562): > 100 µM (inactive) | GI50 (SK-MEL-5): > 100 µM (inactive) | GI50 (EKVX): > 100 µM (inactive) | GI50 (A549): > 100 µM (inactive) | GI50 (TK-10): > 100 µM (inactive) | GI50 (NCI-H460): > 100 µM (inactive) | GI50 (SW-620): > 100 µM (inactive) | GI50 (786-0): > 100 µM (inactive) | GI50 (NCI-H522): > 100 µM (inactive) | GI50 (HOP-92): > 100 µM (inactive) | GI50 (UO-31): > 100 µM (inactive) | GI50 (KM12): > 100 µM (inactive) | GI50 (HOP-18): > 100 µM (inactive) | GI50 (ACHN): > 100 µM (inactive) | GI50 (OVCAR-5): > 100 µM (inactive) | GI50 (COLO 205): > 100 µM (inactive) | GI50 (XF498): > 100 µM (inactive) | GI50 (SK-MEL-2): > 100 µM (inactive) | GI50 (U-251): > 100 µM (inactive)

COC(=O)C1=CC(=O)[C@@H]2CCCC[C@H]12
GI50 (UACC-257): > 100 µM (inactive) | GI50 (OVCAR-3): > 100 µM (inactive) | GI50 (SF-268): > 100 µM (inactive) | GI50 (RXF 393): > 100 µM (inactive) | GI50 (SR): > 100 µM (inactive) | GI50 (SF-539): > 100 µM (inactive) | GI50 (OVCAR-4): > 100 µM (inactive) | GI50 (UACC-62): > 100 µM (inactive) | GI50 (HL-60): > 100 µM (inactive) | GI50 (DLD-1): > 100 µM (inactive) | GI50 (LXFL 529): > 100 µM (inactive) | GI50 (KM-20L2): > 100 µM (inactive) | GI50 (OVCAR-8): > 100 µM (inactive) | GI50 (Malme-3M): > 100 µM (inactive) | GI50 (RPMI-8226): > 100 µM (inactive) | GI50 (HCC 2998): > 100 µM (inactive) | GI50 (M14): > 100 µM (inactive) | GI50 (DMS-273): > 100 µM (inactive) | GI50 (SNB-19): > 100 µM (inactive) | GI50 (HCT-116): > 100 µM (inactive) | GI50 (SK-OV-3): > 100 µM (inactive) | GI50 (CAKI-1): > 100 µM (inactive) | GI50 (HOP-62): > 100 µM (inactive) | GI50 (SNB-75): > 100 µM (inactive) | GI50 (CCRF-CEM): > 100 µM (inactive) | GI50 (HCT-15): > 100 µM | GI50 (SN12C): > 100 µM (inactive) | GI50 (NCI-H226): > 100 µM (inactive) | GI50 (MOLT-4): > 100 µM (inactive) | GI50 (SK-MEL-28): > 100 µM (inactive) | GI50 (SNB-78): > 100 µM (inactive) | GI50 (K562): > 100 µM (inactive) | GI50 (M19-MEL): > 100 µM (inactive) | GI50 (A549): > 100 µM (inactive) | GI50 (TK-10): > 100 µM (inactive) | GI50 (NCI-H460): > 100 µM (inactive) | GI50 (DMS-114): > 100 µM (inactive) | GI50 (RXF 631): > 100 µM (inactive) | GI50 (SW-620): > 100 µM (inactive) | GI50 (786-0): > 100 µM (inactive) | GI50 (NCI-H522): > 100 µM (inactive) | GI50 (UO-31): > 100 µM (inactive) | GI50 (KM12): > 100 µM (inactive) | GI50 (HOP-18): > 100 µM (inactive) | GI50 (ACHN): > 100 µM (inactive) | GI50 (COLO 205): > 100 µM (inactive) | GI50 (SK-MEL-2): > 100 µM (inactive) | GI50 (U-251): > 100 µM (inactive)

Reference: ChEMBL document CHEMBL1201862, “PubChem BioAssay data set” (2004)
